Earlier results as cited in US20030158158A1, “Oct preparations” (priority 2000, published 2003).

Tests used:
[1] = not given; remark: listed apart in the source
[2] = not given; remark: listed apart in the source

- decomposition in aqueous solutions: rapidly decompose
- in vivo calcium elevating effect [2]: low
Compound: C=C1/C(=C\C=C2/CCC[C@]3(C)[C@@H]([C@H](C)OCCC(C)(C)O)CC[C@@H]23)C[C@@H](O)C[C@@H]1O [OCT, 1α,25-dihydroxy-22-oxavitamin D3]
- in vitro differentiation-inducing activity [1]: strong
